Assay results reported in publication PMC9412414, “A Study on Repositioning Nalidixic Acid via Lanthanide Complexation: Synthesis, Characterization, Cytotoxicity and DNA/Protein Binding Studies” (Pharmaceuticals, 2022).

Experiments:
[1] = system: LoVo (human colorectal adenocarcinoma) cell line; assay: MTS cytotoxicity assay, LoVo cell line; type: cell-based; conditions: 48 h of incubation
Procedure: (§1) LoVo, MDA-MB-231 and HUVEC human cell lines were purchased from American Type Culture Collection (ATCC). Cells were routinely maintained in culture either in culture flasks or seeded in plates, using Dulbecco’s modified Eagle medium/nutrient mixture F-12 (DMEM:F12) medium supplemented with […], 10% fetal calf serum (Sigma Aldrich, St. Louis, MO, USA), 100 units/mL penicillin, 100 μg/mL streptomycin and incubated at 37 °C in 5% CO2 humidified atmosphere.
(§2) Cytotoxicity studies were performed in 96-well microtiter plates with flat bottoms (Falcon, Teterboro, NJ, USA) using the CellTiter 96 Aqueous One Solution Cell Proliferation Assay (Promega, Madison, WI, USA), an MTS-based colorimetric assay. Metabolically active cells have the ability to reduce MTS [3-(4,5-dimethylthiazol-2-yl)-5-(3-carboxymethoxyphenyl)-2-(4-sulfophenyl)-2H-tetrazolium, inner salt], a yellow tetrazolium salt, to a colored formazan that is soluble in the culture medium. Briefly, 15 × 10^3 cells per well were cultured in 100 µL culture medium. After 24 h, adherent cells were treated with different concentrations of the studied compounds, as well as adriamycin (Adr) and cisplatin (Cis-Pt), used as positive controls for 24 h and 48 h, respectively. Each well was then filled with 20 µL of reagent containing MTS and PES (phenazine ethosulfate, a cationic dye with excellent chemical stability that binds to MTS and produces a stable solution). The resulting formazan was determined using a Tecan GENios Spectrophotometer (Tecan US, Durham, NC, USA) by measuring the absorbance at λ = 492 nm after incubation for 4 h at 37 °C with moderate agitation every 15 min. The cytotoxicity tests were performed in triplicate, with results reported as mean values with standard deviations (SD). The cytotoxicity of DMSO was also investigated under the same conditions, and no harmful effect was found at doses less than 1%.
(§3) Data were expressed as cell viability by comparing with untreated cells considered 100% viable, using the following formula:(1) Cell viability (%)=absorbance of treated cells−absorbance of culture medium/absorbance of untreated cells−absorbance of culture medium

[2] = system: HUVEC (human umbilical vein endothelial cells); assay: MTS cytotoxicity assay, HUVEC normal cell line; type: cell-based; conditions: 24 h of incubation
Procedure: as §1, §2, §3

EB–DNA system (CT-DNA) = assay: Competitive binding assay with ethidium bromide (EB) through fluorescence spectroscopy; set-up: species or system calf; conditions: EB 2 µM, CT-DNA 10 µM, compound 0–40 µM
Procedure: The fluorescence spectra were recorded using 1.6 mL samples containing 10 µM CT-DNA, 2 µM EB, and increasing amounts (0–40 µM with an increment of 5 µM) of tested compounds; the samples were prepared by keeping the components in contact for 10 min at room temperature, under continuous stirring and in the dark. The excitation wavelength was 500 nm, and the spectra were recorded between the wavelengths of 520 and 800 nm. A Jasco FP 6500 fluorometer and quartz cells with a 1 cm route length were employed. The classical Stern–Volmer equation (Equation (3)) was used to interpret the obtained data:(3) F0/F=1+KSV·[Q] F0 and F are the fluorescence intensities of the EB–DNA samples in the absence and presence of the tested compounds, respectively; KSV is the Stern–Volmer constant, which was computed as the slope from the plot of F0/F vs. [Q], where [Q] is the chemical concentration.
The binding ratio was plotted against the logarithm of the concentration in comparison with a control sample exposed solely to DMSO. (4) y=A1+(A2−A1)×x^n/K50^n+x^n
For fitting data points, the modified Hill function with offset (Origin®) was used: where y represents the binding ratio (F/F0), x represents the concentration, A1 represents the minimum of y values, A2 represents the maximum of y values, K50 represents the concentration corresponding to 50% binding or the half maximum binding constant, and n represents the Hill coefficient.

apotransferrin (apo-Tf) = molecular target: T1, apotransferrin (apo-Tf) (Homo sapiens, UniProt P02787); assay: Apo-Tf fluorescence quenching binding study
T1 construct: purchased Sigma-Aldrich Chemical Co. (Schnelldorf, Germany)
Procedure: (§4) Using a Jasco FP 6500 spectrofluorometer (Jasco, Tokyo, Japan) and quartz cells with a 1 cm path length, the fluorescence spectra of HSA and apo-Tf were recorded in the presence and absence of the examined substances. The 2.5 mL samples containing 2.5 µM HSA or 1 µM apo-Tf were titrated by adding 5 µL of the tested substance at a time, a volume that corresponded to a 1 µM increase in concentration. The concentration range used for these experiments varied from 0 to 8 µM. The relevant spectra were collected in the emission domains of 300–500 nm (HSA) and 305–500 nm (apo-Tf) after 3 min of continuous stirring at room temperature, using excitation wavelengths of 280 nm (HSA) and 295 nm (apo-Tf).
(§5) Experiments were conducted in a pH = 7.4 Tris-HCl buffer (5 mM Tris-HCl/50 mM NaCl for HSA and 5 mM Tris-HCl/50 mM NaCl/25 mM NaHCO3 for apo-Tf).
(§6) The following modified Stern–Volmer equation has been used to calculate the Stern–Volmer constant, which will be denoted as KSV* in order to differentiate it from the Stern–Volmer constant calculated for the DNA binding experiments:(5) F0/F0−F=1/faKsv*[Q]+1/fa where F0 and F are the fluorescence intensities in the absence and presence of the tested compounds, fa is the fraction of fluorophore accessible to the quencher (the tested compounds), [Q] is the quencher concentration, and KSV* (M^−1) is the Stern–Volmer constant; the plot of F0/(F0 − F) against 1/[Q] yields KSV as the slope and fa as the y intercept.
(§7) Subsequently, the bimolecular quenching rate constant was obtained by using Equation (6):(6) Ksv^*=Kqτ0
(§8) Kq (M^−1·s^−1) is the bimolecular quenching rate constant and τ0 is the fluorophore’s lifespan in the absence of the investigated chemicals (10^−8 s). The value of Kq can be used to assess whether the quenching phenomena have an underlying static or dynamic mechanism.
(§9) Using the following equation, the affinity constant (Ka) and the number of binding sites (n) have been calculated: (7) lgF0−F/F=lgKa+nlg[Q]
(§10) The binding affinity, Kd, can be calculated using the quadratic function below:(8) F0−F/F0−Fb=[P]t+[Q]+Kd−([P]t+[Q]+Kd)^2−4[P]t[Q]/2[P]t where F and F0 are the fluorescence intensities of the protein in the presence and absence of the quencher, respectively, Fb is the fluorescence of a fully bound protein–quencher, [P]t is the total concentration of the protein, and [Q] is the concentration of the added quencher. Each binding isotherm was plotted against the total quencher concentration in solution as a function of bound to free protein (F/F0).
(§11) The isotherms were then fitted using the nonlinear regression function below:(9) F/F0= F1+(F2−F1)Kdn/Kdn+[Q]^n where n represents the Hill coefficient, F1 and F2 are the horizontal and vertical asymptotes, respectively. The Kd in Equation (9) is derived from the quadratic binding function (Equation (8)).
(§12) Data were collected in triplicate, averaged, and expressed as mean value ± standard deviation (SD). All graph fitting models were defined and built using OriginPro® 2018.

[3] = molecular target: T2, human serum albumin (HSA) (Homo sapiens, UniProt P02768); assay: HSA fluorescence quenching binding study
T2 construct: purchased Sigma-Aldrich Chemical Co. (Schnelldorf, Germany)
Procedure: as §4, §5, §6, §7, §8, §9, §10, §11, §12

[4] = from Ksv* with τ0 = 10^−8 s, 298 K

T1 sequence (P02787 20-698): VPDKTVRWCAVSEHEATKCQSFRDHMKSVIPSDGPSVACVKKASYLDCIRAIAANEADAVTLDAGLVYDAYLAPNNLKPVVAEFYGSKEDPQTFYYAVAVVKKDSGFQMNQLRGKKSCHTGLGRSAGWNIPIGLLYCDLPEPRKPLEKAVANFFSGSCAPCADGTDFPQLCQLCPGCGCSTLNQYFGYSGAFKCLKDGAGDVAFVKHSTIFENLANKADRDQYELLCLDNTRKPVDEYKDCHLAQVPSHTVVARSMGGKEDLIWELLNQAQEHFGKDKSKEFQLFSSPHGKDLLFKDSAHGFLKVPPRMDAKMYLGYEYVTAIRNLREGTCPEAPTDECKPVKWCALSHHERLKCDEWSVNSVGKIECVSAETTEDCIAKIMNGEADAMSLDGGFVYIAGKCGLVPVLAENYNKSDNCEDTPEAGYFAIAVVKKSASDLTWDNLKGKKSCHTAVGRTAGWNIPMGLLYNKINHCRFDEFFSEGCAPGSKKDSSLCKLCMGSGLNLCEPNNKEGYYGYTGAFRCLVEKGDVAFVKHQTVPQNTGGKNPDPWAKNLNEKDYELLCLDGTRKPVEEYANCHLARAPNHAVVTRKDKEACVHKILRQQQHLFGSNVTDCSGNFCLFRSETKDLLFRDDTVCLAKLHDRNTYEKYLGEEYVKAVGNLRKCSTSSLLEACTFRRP
T2 sequence (P02768 25-609): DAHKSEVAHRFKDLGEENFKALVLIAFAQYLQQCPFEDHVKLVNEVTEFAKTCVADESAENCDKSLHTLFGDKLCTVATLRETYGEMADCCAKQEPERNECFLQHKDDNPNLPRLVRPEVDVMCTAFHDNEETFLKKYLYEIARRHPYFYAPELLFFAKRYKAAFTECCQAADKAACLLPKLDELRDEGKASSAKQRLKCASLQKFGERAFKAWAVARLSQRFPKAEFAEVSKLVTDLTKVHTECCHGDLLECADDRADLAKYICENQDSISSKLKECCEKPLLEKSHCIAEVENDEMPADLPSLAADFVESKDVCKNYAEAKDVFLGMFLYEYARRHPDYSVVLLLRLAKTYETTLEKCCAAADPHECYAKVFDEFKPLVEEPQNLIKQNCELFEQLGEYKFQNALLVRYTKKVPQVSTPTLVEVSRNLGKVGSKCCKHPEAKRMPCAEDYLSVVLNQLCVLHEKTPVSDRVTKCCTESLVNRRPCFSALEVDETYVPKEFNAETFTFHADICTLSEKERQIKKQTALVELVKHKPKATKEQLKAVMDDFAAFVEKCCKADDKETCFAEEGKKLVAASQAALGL

## CCn1cc(C(=O)[O-])c(=O)c2ccc(C)nc21.CCn1cc(C(=O)[O-])c(=O)c2ccc(C)nc21.O.[OH-].[Tb+3] [Tb(nal)2, Tb(C12H11N2O3)2(OH)(H2O)·1.5H2O]
[1]
  IC50: > 200 µM
  IC50 (μM) LoVo: not toxic
[2]
  IC50: > 200 µM
EB–DNA system (CT-DNA)
  EB Displacement Assay K50 (half maximum binding constant): 34.69 ± 11.18 µM
  KSV, Stern–Volmer quenching constant (EB–DNA): 9.14 ± 0.16 M^−1 (×10^3)
Apotransferrin (apo-Tf); apo-Tf 1 µM, 298 K
  Ka (association binding constant), Apo-Tf: (0.32 ± 0.08) × 10^4 M^−1
  n1 (Number of Binding Sites), Apo-Tf: 0.71 ± 0.02
Apotransferrin (apo-Tf); apo-Tf 1 µM, 298 K, read-out: Kd (dissociation constant), Apo-Tf
  Kd: 8.01 ± 4.3 µM
Apotransferrin (apo-Tf); apo-Tf 1 µM, compound 0–8 µM, 298 K
  fa (fraction of fluorophore accessible to the quencher), Apo-Tf: 0.65 ± 0.02
Apotransferrin (apo-Tf); apo-Tf 1 µM, compound 0–8 µM, Tris-HCl pH 7.4, 298 K
  Ksv* (Stern–Volmer quenching constant), Apo-Tf: (2.23 ± 0.15) × 10^5 M^−1
Apotransferrin (apo-Tf); [4]
  Kq (bimolecular quenching constant), Apo-Tf: 2.23e+13 M⁻¹ s⁻¹
[3]; HSA 2.5 µM, 298 K
  Ka (association binding constant), HSA: (11.52 ± 2.87) × 10^5 M^−1
  n1 (Number of Binding Sites), HSA: 1.12 ± 0.02
  n2 (Hill Coefficient), HSA: 1.52 ± 0.09
[3]; HSA 2.5 µM, 298 K, read-out: Kd (dissociation constant), HSA
  Kd: 3.99 ± 0.14 µM
[3]; HSA 2.5 µM, compound 0–8 µM, 298 K
  fa (fraction of fluorophore accessible to the quencher), HSA: 1.13 ± 0.02
[3]; HSA 2.5 µM, compound 0–8 µM, Tris-HCl pH 7.4, 298 K
  Ksv* (Stern–Volmer quenching constant), HSA: (1.92 ± 0.08) × 10^5 M^−1
[3]; [4]
  Kq (bimolecular quenching constant), HSA: 1.92e+13 M⁻¹ s⁻¹
